In patent US9187480B2, “Peripherally restricted diphenyl purine derivatives” (RESEARCH TRIANGLE INSTITUTE, priority 2012, dated 2015):

Legend:
CB1 [1] = target: T1, CB1 (Homo sapiens (Human), UniProt P21554); assay: CB1 activated Gαq16-coupled intracellular calcium mobilization assay in CHO-K1 cells; format: cell-based; details: apparent affinity (Ke)
CB2 = CB2 (Homo sapiens (Human), UniProt P34972); assay: Displacement of [3H]CP55940 in membranes of CHO-K1 cells over-expressing CB2; format: binding; details: radioligand [3H]CP55940, CHO-K1 membranes; read-out: Ki (nM) v. [3H]CP55940 at CB2
MDCK-MDR = MDCK-MDR transport (apical to basal); format: in vitro ADME
CB1 [2] = target: T1, CB1; assay: Displacement of [3H]CP55940 in membranes of CHO-K1 cells over-expressing CB1;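 on all read-outs here: reported values are averages of 3-6 independent measurements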; details: for Binding Selectivity using CP55940 Displacement: CB1 versus CB2; for Ki: read-out: Ki (nM) v. [3H]CP55940 at CB1, radioligand [3H]CP55940, CHO-K1 membranes
Method: Further characterization of select compounds was performed using radioligand displacement of [3H]1 and equilibrium dissociation constant (Ki) values were determined. Selectivity of these compounds at CB1 versus CB2 was also determined by obtaining Ki values at either receptor using displacement of [3H]CP55940 in membranes of CHO-K1 cells over-expressing either receptor. Data reported are average values from 3-6 measurements.
Selectivity against the CB2 receptor was determined by comparing the compound displacement of radiolabeled CP55940, which is a cannabinoid known to act as a full agonist at both CB1 and CB2 receptors.

[3] = Brain penetration / plasma and brain levels after oral dosing in SD rats; format: in vivo, Sprague-Dawley (SD) rats; details: oral 10 mg/kg; for Kp at 1 h / Kp at 2 h / Kp at 4 h / Kp at 24 h / Kp: Sprague-Dawley, rat, brain and plasma; for Kp: range over sampling times, read-out: brain to plasma ratios; for Brain conc.: unperfused brain
Method: However, unlike otenabant, this sulfonamide is a peripherally selective compound. […] Select compounds were chosen for study to determine penetration into the CNS. Selected compounds were dosed orally at 10 mg/kg in SD rats. Brain and plasma samples were collected at 1, 2, 4, and 24 hours post dose and samples were analyzed by MS (Table 2, below). Since unperfused brains were used and the blood volume in unperfused brains is approximately 4%, a brain to plasma level of ≦0.04 represents no discernible penetration into the CNS.

Chain of CB2 (P34972 whole entry): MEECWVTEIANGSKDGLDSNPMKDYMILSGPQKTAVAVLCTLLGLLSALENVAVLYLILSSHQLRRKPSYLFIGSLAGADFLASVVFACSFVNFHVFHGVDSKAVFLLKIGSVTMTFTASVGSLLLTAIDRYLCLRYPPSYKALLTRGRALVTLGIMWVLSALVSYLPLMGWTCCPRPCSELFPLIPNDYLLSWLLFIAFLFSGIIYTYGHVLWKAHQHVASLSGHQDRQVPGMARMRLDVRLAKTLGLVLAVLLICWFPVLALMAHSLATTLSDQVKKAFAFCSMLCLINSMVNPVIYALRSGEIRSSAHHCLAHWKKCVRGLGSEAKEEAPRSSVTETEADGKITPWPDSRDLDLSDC
T1 sequence (P21554 whole entry): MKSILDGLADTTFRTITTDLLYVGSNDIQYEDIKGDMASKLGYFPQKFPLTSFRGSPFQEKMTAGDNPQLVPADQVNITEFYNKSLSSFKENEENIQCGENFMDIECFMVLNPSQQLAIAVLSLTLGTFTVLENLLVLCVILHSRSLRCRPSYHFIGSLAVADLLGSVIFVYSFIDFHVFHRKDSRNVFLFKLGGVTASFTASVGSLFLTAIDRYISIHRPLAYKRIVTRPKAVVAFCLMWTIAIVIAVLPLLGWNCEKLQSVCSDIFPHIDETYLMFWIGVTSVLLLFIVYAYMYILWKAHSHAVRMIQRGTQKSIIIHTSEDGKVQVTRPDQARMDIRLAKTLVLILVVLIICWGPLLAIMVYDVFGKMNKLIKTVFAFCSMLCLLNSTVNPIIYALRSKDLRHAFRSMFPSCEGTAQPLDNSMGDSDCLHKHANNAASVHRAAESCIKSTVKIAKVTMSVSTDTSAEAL

Row | SMILES | Ke (nM) at CB1 (CB1 [1]) | Ki (CB2) [nM] | also measured
1 | NC1(c2ccccc2)CCN(c2ncnc3c2nc(-c2ccccc2Cl)n3-c2ccc(Cl)cc2)CC1 | 15.89 nM | 1660 | % MDCK-MDR transport (Apical to Basal) (MDCK-MDR): <1%; Binding Selectivity using CP55940 Displacement (CB1 [2]): 151; Ki (CB1 [2]): 11 nM
2 | CCNC(=O)NC1(c2ccccc2)CCN(c2ncnc3c2nc(-c2ccccc2Cl)n3-c2ccc(Cl)cc2)CC1 | 443 nM | 4640 | Binding Selectivity using CP55940 Displacement (CB1 [2]): 24; Ki (CB1 [2]): 195 nM
3 | CC(C)NC(=O)NC1(c2ccccc2)CCN(c2ncnc3c2nc(-c2ccccc2Cl)n3-c2ccc(Cl)cc2)CC1 | 46 nM | – | –
4 | CCCNC(=O)NC1(c2ccccc2)CCN(c2ncnc3c2nc(-c2ccccc2Cl)n3-c2ccc(Cl)cc2)CC1 | 100 nM | – | –
5 | CCCCNC(=O)NC1(c2ccccc2)CCN(c2ncnc3c2nc(-c2ccccc2Cl)n3-c2ccc(Cl)cc2)CC1 | 62 nM | – | –
6 | CCOC(=O)CNC(=O)NC1(c2ccccc2)CCN(c2ncnc3c2nc(-c2ccccc2Cl)n3-c2ccc(Cl)cc2)CC1 | 171 nM | – | –
7 | O=C(NC1CCCCC1)NC1(c2ccccc2)CCN(c2ncnc3c2nc(-c2ccccc2Cl)n3-c2ccc(Cl)cc2)CC1 | 199 nM | – | –
8 | CC(C)(C)OC(=O)N1CCC(Nc2ncnc3c2nc(-c2ccccc2Cl)n3-c2ccc(Cl)cc2)CC1 | 92 nM | 13600 | Binding Selectivity using CP55940 Displacement (CB1 [2]): 568.8; Ki (CB1 [2]): 23.9 nM
9 | Clc1ccc(-n2c(-c3ccccc3Cl)nc3c(NC4CCNCC4)ncnc32)cc1 | Not active | – | –
10 | CCNC(=O)N1CCC(Nc2ncnc3c2nc(-c2ccccc2Cl)n3-c2ccc(Cl)cc2)CC1 | 1148 nM | – | –
11 | CC(C)NC(=O)N1CCC(Nc2ncnc3c2nc(-c2ccccc2Cl)n3-c2ccc(Cl)cc2)CC1 | 495 nM | – | –
12 | CCCNC(=O)N1CCC(Nc2ncnc3c2nc(-c2ccccc2Cl)n3-c2ccc(Cl)cc2)CC1 | 1964 nM | – | –
13 | CCCCNC(=O)N1CCC(Nc2ncnc3c2nc(-c2ccccc2Cl)n3-c2ccc(Cl)cc2)CC1 | 71 nM | – | –
14 | CC(=O)N1CCC(Nc2ncnc3c2nc(-c2ccccc2Cl)n3-c2ccc(Cl)cc2)CC1 | 19595 nM | – | –
15 | CS(=O)(=O)N1CCC(Nc2ncnc3c2nc(-c2ccccc2Cl)n3-c2ccc(Cl)cc2)CC1 | 1645 nM | – | –
16 | CC(=O)N1CCCC(Nc2ncnc3c2nc(-c2ccccc2Cl)n3-c2ccc(Cl)cc2)C1 (stereo not shown) | 4449 nM | – | –
17 | CCNC(=O)N1CCCC(Nc2ncnc3c2nc(-c2ccccc2Cl)n3-c2ccc(Cl)cc2)C1 (stereo not shown) | 1153 nM | – | –
18 | CC(C)(C)OC(=O)NC1CCN(c2ncnc3c2nc(-c2ccccc2Cl)n3-c2ccc(Cl)cc2)CC1 | 11 nM | – | –
19 | COC(=O)NC1CCN(c2ncnc3c2nc(-c2ccccc2Cl)n3-c2ccc(Cl)cc2)CC1 | 17 nM | – | –
20 | O=C(NC1CCN(c2ncnc3c2nc(-c2ccccc2Cl)n3-c2ccc(Cl)cc2)CC1)c1ccccc1 | – | 10600 | –
21 | NC1CCN(c2ncnc3c2nc(-c2ccccc2Cl)n3-c2ccc(Cl)cc2)CC1 | 316 nM | – | –
22 | CCNC(=O)NC1CCN(c2ncnc3c2nc(-c2ccccc2Cl)n3-c2ccc(Cl)cc2)CC1 | 149 nM | – | –

Row | SMILES | Ke (nM) at CB1 (CB1 [1]) | Ki (CB2) [nM] | also measured
23 | CC(C)NC(=O)NC1CCN(c2ncnc3c2nc(-c2ccccc2Cl)n3-c2ccc(Cl)cc2)CC1 | 133 nM | – | –
24 | CCCNC(=O)NC1CCN(c2ncnc3c2nc(-c2ccccc2Cl)n3-c2ccc(Cl)cc2)CC1 | 132 nM | – | –
25 | CCCCNC(=O)NC1CCN(c2ncnc3c2nc(-c2ccccc2Cl)n3-c2ccc(Cl)cc2)CC1 | 49 nM | – | –
26 | CS(=O)(=O)NC1CCN(c2ncnc3c2nc(-c2ccccc2Cl)n3-c2ccc(Cl)cc2)CC1 | 71 nM | – | –
27 | NS(=O)(=O)NC1CCN(c2ncnc3c2nc(-c2ccccc2Cl)n3-c2ccc(Cl)cc2)CC1 | 2768 nM | – | –
28 | O=S(=O)(NC1CCN(c2ncnc3c2nc(-c2ccccc2Cl)n3-c2ccc(Cl)cc2)CC1)C(F)(F)F | 1.05 nM | 4500 | Binding Selectivity using CP55940 Displacement (CB1 [2]): 738; Ki (CB1 [2]): 6.1 nM
29 | O=S(=O)(NC1CCN(c2ncnc3c2nc(-c2ccccc2Cl)n3-c2ccc(Cl)cc2)CC1)c1ccccc1 | 0.26 nM | – | –
30 | CC(=O)NC1CCN(c2ncnc3c2nc(-c2ccccc2Cl)n3-c2ccc(Cl)cc2)CC1 | 631 nM | – | –
31 | O=C(NC1CCN(c2ncnc3c2nc(-c2ccccc2Cl)n3-c2ccc(Cl)cc2)CC1)C(F)(F)F | 3.19 nM | – | –
32 | O=C(CCN1CCCCC1)NC1CCN(c2ncnc3c2nc(-c2ccccc2Cl)n3-c2ccc(Cl)cc2)CC1 | 789 nM | – | –
33 | CN(C)CC(=O)NC1CCN(c2ncnc3c2nc(-c2ccccc2Cl)n3-c2ccc(Cl)cc2)CC1 | 140 nM | – | –
34 | O=C(NC1CCN(c2ncnc3c2nc(-c2ccccc2Cl)n3-c2ccc(Cl)cc2)CC1)C1CCCCC1 | 3.3 nM | 835 | Binding Selectivity using CP55940 Displacement (CB1 [2]): 249; Ki (CB1 [2]): 3.35 nM
35 | O=C(CC1CCCCC1)NC1CCN(c2ncnc3c2nc(-c2ccccc2Cl)n3-c2ccc(Cl)cc2)CC1 | 2.1 nM | 2360 | Ki (CB1 [2]): 1.93 nM
36 | CC(C)CC(=O)NC1CCN(c2ncnc3c2nc(-c2ccccc2Cl)n3-c2ccc(Cl)cc2)CC1 | 5.4 nM | 89.5 | Binding Selectivity using CP55940 Displacement (CB1 [2]): 22; Ki (CB1 [2]): 4.01 nM
37 | O=C(NC1CCN(c2ncnc3c2nc(-c2ccccc2Cl)n3-c2ccc(Cl)cc2)CC1)C1CCCC1 | 0.89 nM | 60.2 | Binding Selectivity using CP55940 Displacement (CB1 [2]): 39; Ki (CB1 [2]): 1.54 nM
38 | CC(C)CCC(=O)NC1CCN(c2ncnc3c2nc(-c2ccccc2Cl)n3-c2ccc(Cl)cc2)CC1 | 7.4 nM | 215 | Binding Selectivity using CP55940 Displacement (CB1 [2]): 81; Ki (CB1 [2]): 2.67 nM
39 | O=C(CC1CCCC1)NC1CCN(c2ncnc3c2nc(-c2ccccc2Cl)n3-c2ccc(Cl)cc2)CC1 | 2.9 nM | 569 | Binding Selectivity using CP55940 Displacement (CB1 [2]): 282; Ki (CB1 [2]): 2.02 nM
40 | CCOC(=O)NC1CCN(c2ncnc3c2nc(-c2ccccc2Cl)n3-c2ccc(Cl)cc2)CC1 [drawing 62] | 2.3 nM | 426 | Binding Selectivity using CP55940 Displacement (CB1 [2]): 119; Ki (CB1 [2]): 3.57 nM
41 | CCCCC(=O)NC1CCN(c2ncnc3c2nc(-c2ccccc2Cl)n3-c2ccc(Cl)cc2)CC1 [drawing 78] | 4.9 nM | 1050 | Binding Selectivity using CP55940 Displacement (CB1 [2]): 54; Ki (CB1 [2]): 19.5 nM
42 | CCOC(=O)NC1CCN(c2ncnc3c2nc(-c2ccccc2Cl)n3-c2ccc(Cl)cc2)CC1 [drawing 84] | – | – | Kp at 1 h ([3]; 1 hour post dose): 0.28; Kp at 2 h ([3]; 2 hours post dose): 0.14; Kp at 4 h ([3]; 4 hours post dose): 0.16; Kp at 24 h ([3]; 24 hours post dose): 0.46; Kp [3]: 0.14 to 0.46; Plasma conc. ([3]; 1 hour post dose): 740 ng/mL; Plasma conc. ([3]; 2 hours post dose): 971 ng/mL; Plasma conc. ([3]; 4 hours post dose): 1750 ng/mL; Plasma conc. ([3]; 24 hours post dose): 72.6 ng/mL; Brain conc. ([3]; 1 hour post dose): 207 ng/mL; Brain conc. ([3]; 2 hours post dose): 132 ng/mL; Brain conc. ([3]; 4 hours post dose): 276 ng/mL; Brain conc. ([3]; 24 hours post dose): 33.5 ng/mL
43 | CCCCC(=O)NC1CCN(c2ncnc3c2nc(-c2ccccc2Cl)n3-c2ccc(Cl)cc2)CC1 [drawing 85] | – | – | Kp at 1 h ([3]; 1 hour post dose): 0.03; Kp at 2 h ([3]; 2 hours post dose): 0.03; Kp at 4 h ([3]; 4 hours post dose): 0.07; Kp at 24 h ([3]; 24 hours post dose): 0.13; Kp [3]: 0.03 to 0.13; Plasma conc. ([3]; 1 hour post dose): 1430 ng/mL; Plasma conc. ([3]; 2 hours post dose): 2780 ng/mL; Plasma conc. ([3]; 4 hours post dose): 1680 ng/mL; Plasma conc. ([3]; 24 hours post dose): 18.7 ng/mL; Brain conc. ([3]; 1 hour post dose): 43.6 ng/mL; Brain conc. ([3]; 2 hours post dose): 72.4 ng/mL; Brain conc. ([3]; 4 hours post dose): 119 ng/mL; Brain conc. ([3]; 24 hours post dose): 2.36 ng/mL
